Test results reported in article PMC4864540, “Isolation and Characterization of a Broad Spectrum Bacteriocin from Bacillus amyloliquefaciens RX7” (BioMed Research International, 2016).

What was measured:
[1] = test system: L. monocytogenes ATCC 19114; assay: Mode of action, time-kill study (viable cell count); assay type: cell-based, Listeria monocytogenes; details: 80 AU/mL added to L. monocytogenes at 4.2 × 10^8 CFU/mL, mid-exponential phase, viable counts at 1-hour intervals, mean of three experiments
Method: To determine the mode of action of the bacteriocin, the crude bacteriocin was added at a final concentration of 80 AU/mL to the culture at the mid-exponential growth phase of L. monocytogenes ATCC 19114 in 20 mL of TSB medium. Viable cells were counted at 1-hour intervals for the next 8 hours. Viable cell counting was repeated in triplicate and the mean values were calculated.

[2] = test system: Salmonella pullorum KVCC-BA0702509; assay: Agar well diffusion assay; assay type: cell-based; details: cell-free supernatant, medium NB
Method: (§1) Soil samples were collected from a farm in Cheonan city, Korea. They were mixed with sterile water (1 : 10, w/v), homogenized, and heated at 50°C for 60 min in a water bath. One mL of this suspension was inoculated into 100 mL of tryptic soy broth (Difco, USA) and incubated at 50°C for 24 h, after which microbial growth was monitored based on changes in turbidity of the cultures. Aliquots of the cultures were inoculated onto TSB plates, incubated at 30°C, and single colonies were isolated and screened for antimicrobial activity. The antimicrobial activity was performed according to Ramachandran et al. with modifications. It was expressed as the diameter of the inhibition zones around the wells using agar well diffusion assays with Listeria monocytogenes ATCC 19114 as the indicator strain.
(§2) Antimicrobial activity was detected using the agar well diffusion assay and tested against all indicator strains (Table 1) grown in their respective media, as indicated (Difco, USA). An aliquot of culture was centrifugated at 6,000 g for 15 min at 4°C (Mega 21R, Hanil Co., Republic of Korea), filtered using 0.45 μm pore-size cellulose acetate syringe filters (Advantec Co., Japan) to remove cells, then applied to wells on agar plates. Experiments were done in no less than five individual trials having no less than three replications.
(§3) The plates were incubated at the optimal temperature of the test organism. The bacteriocin titer was determined using the serial twofold dilution method. Activity was defined as the reciprocal of the dilution after the last serial dilution giving a zone of inhibition and was expressed as activity units (AU) per milliliter. All measurements were done in triplicate and the means are shown as the results.

[3] = test system: Lactobacillus johnsonii PF01 (our isolate); assay: Agar well diffusion assay; assay type: cell-based; details: cell-free supernatant, medium MRS
Method: as §1, §2, §3

[4] = test system: Staphylococcus aureus subsp. aureus (MRSA) KCCM 40510; assay: Agar well diffusion assay; assay type: cell-based; details: cell-free supernatant, medium NB
Method: as §1, §2, §3

[5] = test system: Salmonella typhimurium KCCM 40253; assay: Agar well diffusion assay; assay type: cell-based; details: cell-free supernatant, medium NB
Method: as §1, §2, §3

[6] = test system: Lactobacillus delbrueckii KCCM 11357; assay: Agar well diffusion assay; assay type: cell-based; details: cell-free supernatant, medium MRS
Method: as §1, §2, §3

[7] = test system: Bacillus cereus KCTC 1661; assay: Agar well diffusion assay; assay type: cell-based; details: cell-free supernatant, medium LB
Method: as §1, §2, §3

[8] = test system: Salmonella enteritidis KVCC-BA0700654; assay: Agar well diffusion assay; assay type: cell-based; details: cell-free supernatant, medium NB
Method: as §1, §2, §3

[9] = test system: Staphylococcus aureus KFRI 00188; assay: Agar well diffusion assay; assay type: cell-based; details: cell-free supernatant, medium NB
Method: as §1, §2, §3

[10] = test system: Shigella flexneri KCCM 40414; assay: Agar well diffusion assay; assay type: cell-based; details: cell-free supernatant, medium NB
Method: as §1, §2, §3

[11] = test system: Listeria monocytogenes ATCC 19114; assay: Agar well diffusion assay; assay type: cell-based; details: cell-free supernatant, medium TSB
Method: as §1, §2, §3

[12] = test system: Lactobacillus salivarius CPM7 (our isolate); assay: Agar well diffusion assay; assay type: cell-based; details: cell-free supernatant, medium MRS
Method: as §1, §2, §3

[13] = test system: Salmonella gallinarum KVCC-BA0700722; assay: Agar well diffusion assay; assay type: cell-based; details: cell-free supernatant, medium NB
Method: as §1, §2, §3

[14] = test system: Streptococcus agalactiae ATCC 13813; assay: Agar well diffusion assay; assay type: cell-based; details: cell-free supernatant, medium TSB
Method: as §1, §2, §3

[15] = test system: Pseudomonas aeruginosa CCARM 2003; assay: Agar well diffusion assay; assay type: cell-based; details: cell-free supernatant, medium LB
Method: as §1, §2, §3

[16] = test system: Klebsiella pneumoniae subsp. pneumoniae KCCM 11418; assay: Agar well diffusion assay; assay type: cell-based; details: cell-free supernatant, medium NB
Method: as §1, §2, §3

Escherichia coli K88 = assay: Agar well diffusion assay; assay type: cell-based; details: cell-free supernatant, medium LB
Method: as §1, §2, §3

[17] = test system: Enterococcus faecalis (VRE) CCARM 0011; assay: Agar well diffusion assay; assay type: cell-based; details: cell-free supernatant, medium NB
Method: as §1, §2, §3

[18] = test system: Candida albicans KCTC 7122; assay: Agar well diffusion assay; assay type: cell-based; details: cell-free supernatant, medium PDA
Method: as §1, §2, §3

[19] = test system: Streptococcus mutans ATCC 25175; assay: Agar well diffusion assay; assay type: cell-based; details: cell-free supernatant, medium BHI
Method: as §1, §2, §3

[20] = test system: Lactobacillus acidophilus KCCM 32820; assay: Agar well diffusion assay; assay type: cell-based; details: cell-free supernatant, medium MRS
Method: as §1, §2, §3

[21] = test system: Salmonella enteritidis KCCM 12021; assay: Agar well diffusion assay; assay type: cell-based; details: cell-free supernatant, medium NB
Method: as §1, §2, §3

[22] = test system: Pseudomonas aeruginosa KCCM 11266; assay: Agar well diffusion assay; assay type: cell-based; details: cell-free supernatant, medium NB
Method: as §1, §2, §3

[23] = test system: Lactobacillus plantarum KCCM 11322; assay: Agar well diffusion assay; assay type: cell-based; details: cell-free supernatant, medium MRS
Method: as §1, §2, §3

[24] = test system: Bacillus licheniformis KCCM 12145; assay: Agar well diffusion assay; assay type: cell-based; details: cell-free supernatant, medium NB
Method: as §1, §2, §3

NH2-X-Ala-Trp-Tyr-Asp-Ile-Arg-Lys-Leu-Gly-Asn-Lys-Gly-Ala [RX7 bacteriocin, Bacteriocin of approximately 5 kDa produced by Bacillus amyloliquefaciens RX7; homologous to lantibiotic haloduracin A1]
+++ (less than 30 mm): Inhibition zone (mm) [11]
+ (less than 10 mm): Inhibition zone (mm) [2] | Inhibition zone (mm) [3] | Inhibition zone (mm) [4] | Inhibition zone (mm) [6] | Inhibition zone (mm) [12] | Inhibition zone (mm) [16] | Inhibition zone (mm) [19] | Inhibition zone (mm) [20] | Inhibition zone (mm) [23]
++ (less than 20 mm): Inhibition zone (mm) [5] | Inhibition zone (mm) [7] | Inhibition zone (mm) [8] | Inhibition zone (mm) [9] | Inhibition zone (mm) [10] | Inhibition zone (mm) [13] | Inhibition zone (mm) [14] | Inhibition zone (mm) [15] | Inhibition zone (mm) (Escherichia coli K88) | Inhibition zone (mm) [17] | Inhibition zone (mm) [18] | Inhibition zone (mm) [21] | Inhibition zone (mm) [22] | Inhibition zone (mm) [24]
2 h: incubation time for complete bactericidal action (no colony formation on TSB agar) [1]
